{"source": "patent US20260152527A1", "about": "“NOVEL MELANOCORTIN ANALOGS” (priority 2022, published 2026)", "key": {"[1]": {"details": "rabbit", "source_text": "To evaluate the effects of the peptide formulations following topical administration and subconjunctival injection a study in rabbits was undertaken. Animals were acclimated to the study and, upon completion of the acclimation period, each animal was physically examined for determination of suitability for study participation. Animals determined to be in good health were randomized into study groups to achieve averaged mean body weight in each group. (N=24; 3 animals per study group) Animals will be uniquely identified by corresponding cage card number and ear tag.\nFor topical ocular dosing the designated peptide formulations (35 L) were administered to the eye of each animal using a calibrated pipette. With the animal manually restrained, the upper eyelid of the eye was gently elevated to expose the cornea. Treatment was then be applied to the cornea without contacting the eye with the pipette tip. One topical drop was applied per eye for four days. Tissue collection (aqueous humor) occurred 30 minutes after last dose.\nA veterinary ophthalmologist performed complete ocular examinations using a slit lamp biomicroscope and indirect ophthalmoscope to evaluate ocular surface morphology and anterior and posterior segment inflammation on all animals prior to injection to serve as a baseline for enrollment into the study as well as on specific study days. Animals were not tranquilized for the examinations.\nAt least 1.0 mL of whole blood was drawn from the marginal ear vein or cardiac puncture (terminal bleed only) into K2EDTA tubes for plasma collection. After collection, the tubes were gently mixed by inverting the tubes 5-8 times. Blood samples were stored on wet ice prior to plasma processing. The samples were centrifuged at 4° C. for 10 minutes at 2000 g in a swinging bucket refrigerated centrifuge. Within 20 minutes of the blood collection time, the clear plasma was transferred to prelabelled polypropylene tubes, snap frozen, and stored frozen at approximately −80° C.\nFollowing euthanasia, eyes were enucleated and marked at the 12:00 position. Aqueous humor was removed via a 27 or 30 gauge syringe following a 10-15 second rinse with PBS and blot with Kimwipe, and snap frozen by immersing in liquid nitrogen. The whole globe was then snap frozen in liquid nitrogen and stored at −80° C. to be held for potential dissection. All samples were placed into individual vials and weighed. The plasma and aqueous humor were collected.\nThe peptides were evaluated for their ocular tolerability and pharmacokinetics following repeated (QID×4 days) topical instillation or a single subconjunctival injection in rabbits. The study examined penetration into the anterior chamber and concentrations in the plasma by measuring at a single time point."}, "[2]": {"system": "corneal edema following Descemetorhexis without Endothethelial Keratoplasty (DWEK) surgery", "format": "in vivo", "details": "rabbit", "protocol": "To evaluate the efficacy of a peptide formulation in reducing corneal edema following Descemetorhexis without Endothethelial Keratoplasty (DWEK) surgery a study in rabbits was undertaken. […] A Table summarizing the parameters regarding the study is provided in FIGS. 5A-5B and a schematic exemplifying the timeline of the study is provided in FIG. 6.\nTreatment was administered once (QD) or twice daily (BID) with approximately 6-8 hours between each BID dose for 28 days.\nThe rabbits were subjected to a surgical procedure prior to administering topical treatment. The animals received buprenorphine (0.01-0.05 mg/kg SC) and were sedated immediately prior to the procedure with ketamine/xylazine cocktail (20-50/4-10 mg/kg IM). Aseptic precautions were taken for the surgical procedure. […] Sterile eyewash was then used to irrigate the ocular surface of the left eye. […] The animal's corneal epithelium was marked with a circular ring (5 mm) to create a template for resection of the host tissue. […] Descemet's membrane was scored peripherally using a reverse Terry-Sinskey hook, and then Descemet's membrane was peeled from the overlying stroma. Descemet's membrane was removed using forceps. Viscoelastic was removed by Irrigation Aspiration (IA) using balanced salt saline (BSS). […]\nIn addition, tonometry was performed by a veterinary ophthalmologist or a trained technician. Intraocular pressure (IOP) was measured in both eyes of all animals at days 2, 4, 8, 15, 22, and 29. […] Six consecutive measurements were obtained and the average IOP shown on the display was recorded. Three independent measurements were obtained and recorded for each eye.\nPachymetry was also performed by a veterinary ophthalmologist or trained technician on days 2, 4, 8, 15, 22, and 29. Corneal thickness was measured in both eyes using an ultrasonic pachymeter. […]\nOptical coherence tomography (OS only) was also measured in the animals. […]"}, "[3]": {"test": "In vivo topical administration pharmacokinetics / tissue distribution of K173, rat", "details": "four days of BID topical dosing", "protocol": "To evaluate the pharmacokinetics of the peptide formulations following topical administration a study in rats was undertaken.\nTreatment was administered twice daily (BID) with approximately 6-8 hours between BID doses.\nAll animals underwent twice daily cage side clinical observations with particular attention paid to the eyes. Animals were not tranquilized for the examinations.\nWhen animals were terminal, blood was collected by inserting a 25G needle into the heart and the animal was exsanguinated and the blood was collected into K2EDTA tubes for plasma collection. […] Once centrifuged, the clear plasma was transferred to a prelabelled polypropylene tube, snap frozen and stored at approximately −80° C.\nFollowing euthanasia, eyes were enucleated and rinsed twice with fresh ice-cold PBS. […] The anterior segment and lens were removed and the neurosensory retina was dissected into pre-weighed 2 mL polypropylene tube, re-weighed and snap frozen. The brain was collected and weighted and the hypothalamus, hippocampus, and remining brain were dissected, placed in pre-weighted polypropylene tubes, re-weighed, and snap frozen. All tissues were stored at −80° C.\nThe concentrations of K173 in the aqueous humor, retina, hypothalamus, hippocampus, remaining brain tissue, and plasma was measured and the values are provided in Table 7."}, "human recombinant MC1R": {"molecular_target": "T1, human recombinant MC1R (Homo sapiens, UniProt Q01726)", "T1 construct": "host or cells: CHO-K1", "T1 sequence (Q01726 whole entry)": "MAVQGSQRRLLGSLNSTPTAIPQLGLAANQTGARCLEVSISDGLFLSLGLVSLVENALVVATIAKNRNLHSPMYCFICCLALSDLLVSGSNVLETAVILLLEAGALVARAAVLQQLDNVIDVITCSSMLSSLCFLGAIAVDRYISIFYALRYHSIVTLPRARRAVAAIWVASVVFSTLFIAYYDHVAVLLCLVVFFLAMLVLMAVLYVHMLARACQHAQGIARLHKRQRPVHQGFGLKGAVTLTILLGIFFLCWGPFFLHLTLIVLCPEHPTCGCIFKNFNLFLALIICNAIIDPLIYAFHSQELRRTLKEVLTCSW", "test": "cyclic AMP (cAMP) functional assay, MC1R stable cell line (CHO-K1);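 further: cells with test compound for 60 min at room temperature in buffer containing IBMX, then cAMP quantified by Eu-cAMP tracer and ULight anti-cAMP detection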", "format": "cell-based"}, "human recombinant MC5R": {"molecular_target": "T2, human recombinant MC5R (Homo sapiens, UniProt P33032)", "T2 construct": "host or cells: CHO-K1/Ga15", "T2 sequence (P33032 whole entry)": "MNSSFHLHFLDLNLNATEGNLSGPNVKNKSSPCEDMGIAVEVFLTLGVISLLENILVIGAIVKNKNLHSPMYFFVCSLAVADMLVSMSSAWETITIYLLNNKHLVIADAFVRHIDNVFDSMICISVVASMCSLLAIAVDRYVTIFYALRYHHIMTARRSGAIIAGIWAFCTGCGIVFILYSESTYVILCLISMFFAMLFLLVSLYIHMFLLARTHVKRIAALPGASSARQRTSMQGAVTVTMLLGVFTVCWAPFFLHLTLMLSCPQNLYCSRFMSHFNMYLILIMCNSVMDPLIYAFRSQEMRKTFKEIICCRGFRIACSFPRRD", "test": "Ca2+ signalling functional assay, MC5R stable cell line (CHO-K1/Ga15)", "format": "cell-based", "procedure": "The Ca^2+ signalling functional assay was performed on a human recombinant MC5R stable cell line (CHO-K1/Ga15, GenScript). The cells were cultured at 37° C. and 5% C02 with culture medium (90% Ham's F-12K (Kaighn's)+10% FBS+400 μg/mL G418+100 μg/mL Hygromycin B). Cells were washed with PBS and then detached by incubation with 0.05% (w/v) Trypsin EDTA at 37° C. for 2 to 5 mins. Detached cells were suspended in Ham's F-12K (Kaighn's) (containing 10% FBS) and a 50 μL cell suspension is seeded into each well of a 384-well assay plate at a density of 15,000 cells/well. Cells were allowed to settle overnight at 37° C., 5% CO2. […] Then, 100 nL of compounds were transferred to the compound plate by the Echo machine. Thirty microliter assay buffer was added to the compounds plate and then shaken for 20-40 minutes. The plates were placed on the FLIPR and 15 μL of the compound was added to each well, then calcium flux signal was measured."}, "human recombinant MC4R": {"molecular_target": "T3, human recombinant MC4R (Homo sapiens, UniProt P32245)", "T3 construct": "host or cells: CHO-K1/Gα15", "T3 sequence (P32245 whole entry)": "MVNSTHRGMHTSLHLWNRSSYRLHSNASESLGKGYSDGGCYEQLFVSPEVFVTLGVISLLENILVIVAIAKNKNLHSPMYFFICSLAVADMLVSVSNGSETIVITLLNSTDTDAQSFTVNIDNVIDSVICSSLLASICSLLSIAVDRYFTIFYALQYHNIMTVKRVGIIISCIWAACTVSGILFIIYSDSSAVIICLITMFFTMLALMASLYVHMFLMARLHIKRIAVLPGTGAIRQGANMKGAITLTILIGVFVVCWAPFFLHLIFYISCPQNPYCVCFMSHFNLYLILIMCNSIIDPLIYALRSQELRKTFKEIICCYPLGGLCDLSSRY", "test": "Ca2+ signalling functional assay, MC4R stable cell line (CHO-K1/Gα15)", "format": "cell-based", "procedure": "The Ca^2+ signalling functional assay was performed on a human recombinant MC4R stable cell line (CHO-K1/Gα15, GenScript). The cells were cultured at 37° C. and 5% CO2 with culture medium (90% Ham's F-12K (Kaighn's)+10% FBS+8 μg/mL Puromycin+100 μg/mL Hygromycin B). Cells were washed with PBS and then detached by incubation with 0.05% (w/v) Trypsin EDTA at 37° C. for 2-5 mins. Detached cells were suspended in Ham's F-12K (Kaighn's) (containing 10% FBS) and a 50 μL cell suspension was seeded into each well of a 384-well assay plate at a density of 15,000 cells/well. Cells were allowed to settle overnight at 37° C., 5% CO2. The next day, the assay plate was centrifuged and the media was replaced with dye (1×) in assay buffer (containing HBSS, HEPES 20 mM and probenecid 1 mM) and incubated for 1 h at 37° C. […] Then, 100 nL of compounds were transferred to the compound plate by the Echo machine. 30 μL assay buffer was added to the compounds plate and then shaken for 20 to 40 minutes. The plates were placed on the FLIPR and 15 μL of the compound was added to each well, then calcium flux signal was measured."}}, "note": "Positions of bridges follow the written chain, without caps; N, C: chain ends. Non-standard residues stand in square brackets, D forms with d. Residues, ends and D or L forms follow the SMILES beside them. Triazole bridges read from a SMILES are 1,4-linked. *: point of attachment. Benzoyl(3,5-(OH)2) = O=C(c1cc(O)cc(O)c1)*; Lys(N3) = [N-]=[N+]=NCCCC[C@H](N)C(=O)O; dPhe(4-F) = N[C@H](Cc1ccc(F)cc1)C(=O)O; Nle = CCCC[C@H](N)C(=O)O; Pra = C#CC[C@H](N)C(=O)O"}
{"smiles": "CCCC[C@H](NC(=O)c1cc(O)cc(O)c1)C(=O)N[C@H]1CCCCn2cc(nn2)C[C@@H](C(N)=O)NC(=O)[C@H](Cc2c[nH]c3ccccc23)NC(=O)[C@H](CCCNC(=N)N)NC(=O)[C@@H](Cc2ccc(F)cc2)NC(=O)[C@H](Cc2c[nH]cn2)NC1=O", "note": "[KR-072, HyBA-Nle-[Lys(N3)-His-Dphe(4-F)-Arg-Trp-Pra]-NH2] ({Benzoyl(3,5-(OH)2)}-[Nle][Lys(N3)]H[dPhe(4-F)]RW[Pra]-NH2; triazole 2-7)", "values": [{"measurement": "Topical Ocular Permeability (nM ± SEM)", "setting": "[1]", "result": "15.5 ± 2.6", "unit": "nM"}, {"measurement": "corneal edema by stromal thickness measurements (OCT)", "setting": "[2]; DWEK, topical 0.05, 0.1, 0.5 mg/mL QD vs vehicle", "result": "decrease corneal edema"}, {"measurement": "wound healing / rate of wound closure (corneal flat mount analysis)", "setting": "[2]; topical 0.1 mg/mL", "result": "enhanced wound healing"}, {"measurement": "efficacy on corneal stromal thickness by OCT", "setting": "[2]; two lowest treatment options 0.05 mg/mL or 0.1 mg/mL", "result": "Statistically significant efficacy"}, {"measurement": "K173 level in the neural retina", "setting": "[3]", "result": "high levels"}, {"measurement": "K173 presence in brain", "setting": "[3]; hypothalamus, hippocampus, remaining brain", "result": "found in all parts of the brains"}, {"measurement": "EC50", "setting": "human recombinant MC1R", "result": 0.0019, "unit": "nM"}, {"measurement": "IC50", "setting": "human recombinant MC1R; cAMP functional assay", "result": 0.0019, "unit": "nM"}, {"measurement": "EC50", "setting": "human recombinant MC5R", "result": 78, "unit": "nM"}, {"measurement": "IC50", "setting": "human recombinant MC5R; calcium flux functional assay", "result": 78, "unit": "nM"}, {"measurement": "EC50", "setting": "human recombinant MC4R", "result": 98.6, "unit": "nM"}]}
